Results from the supplement of paper PMC10307832.

Legend:
Assay in all cases: relative viability (nuclei count vs DMSO), 5 days (fraction); higher = more cells survive
[1] = compound: C1COCCN1C2=NC(=NC3=C2OC4=C3C=CC=N4)C5=CC(=CC=C5)NC(=O)C6=CN=C(C=C6)N + N=C(N)NC(=N)NCCc1ccccc1 [Phenformin] (partner 250 µM)
Method in brief: (§1)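 Values are medians from duplicate plates. Each reflects relative viability, defined as the nuclei count of treated wells over that of vehicle wells. Lung cancer cell lines in 1536-well plates were pin-tool dosed one day after seeding with one drug alone or with a fixed anchor-drug dose plus five library-drug doses (not always all listed) in √10 steps, then fixed, stained and imaged at 4× after 5 days.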

[2] = compound: Nc1ccccc1NC(=O)c1ccc(CNC(=O)OCc2cccnc2)cc1 [Entinostat] + CCNC(=O)c1noc(-c2cc(C(C)C)c(O)cc2O)c1-c1ccc(CN2CCOCC2)cc1 [Luminespib] (partner 0.01 µM)
Method in brief: as §1

[3] = compound: Nc1ccccc1NC(=O)c1ccc(CNC(=O)OCc2cccnc2)cc1 [Entinostat] + Cc1nc(Nc2ncc(C(=O)Nc3c(C)cccc3Cl)s2)cc(N2CCN(CCO)CC2)n1 [Dasatinib] (partner 0.075 µM)
Method in brief: as §1

[4] = compound: CN1CCC(CNc2ccc3ncc(-c4cccc(OC(F)(F)F)c4)n3n2)CC1 [SGI-1776] + CS(=O)(=O)CCNCc1ccc(-c2ccc3ncnc(Nc4ccc(OCc5cccc(F)c5)c(Cl)c4)c3c2)o1 [Lapatinib] (partner 2 µM)
Method in brief: as §1

UMC-11 was tested, and the relative viability ([1]; first compound 0.02 µM) was 0.302, the relative viability ([1]; first compound 0.06325 µM) was 0.327 and the relative viability ([1]; first compound 0.2 µM) was 0.33. For the same cell line, the relative viability ([1]; first compound 0.6325 µM) was 0.308, the relative viability ([1]; first compound 2 µM) was 0.204 and the relative viability ([2]; first compound 0.02 µM) was 1.06. It also gave a relative viability ([2]; first compound 0.06325 µM) of 1.14, a relative viability ([2]; first compound 0.2 µM) of 0.937 and a relative viability ([2]; first compound 0.6325 µM) of 0.261. It also gave a relative viability ([2]; first compound 2 µM) of 0.221, a relative viability ([3]; first compound 0.02 µM) of 0.468 and a relative viability ([3]; first compound 0.06325 µM) of 0.478. The relative viability ([3]; first compound 0.2 µM) was 0.399, the relative viability ([3]; first compound 0.6325 µM) was 0.193 and the relative viability ([3]; first compound 2 µM) was 0.17. The relative viability ([4]; first compound 0.08 µM) was 0.907, the relative viability ([4]; first compound 0.8 µM) was 1.12 and the relative viability ([4]; first compound 2.53 µM) was 1.11. It also gave a relative viability ([4]; first compound 8 µM) of 0.644.
